{"source": "patent US10238641B2", "about": "“Materials and methods for diagnosis, prevention and/or treatment of stress disorders and conditions associated with A-beta peptide aggregation” (The United States of America as represented by the …, priority 2008, dated 2019)", "key": {"[1]": {"system": "rat cortical cells exposed to Aβ", "experiment": "Aβ toxicity assay, double calcein-AM and PI staining", "type": "cell-based", "details": "5 μM Aβ + 10 μM cotinine, 24 h; Aβ alone 63%", "procedure": "Primary cortical embryonic rat neurons were incubated with 5 μM Aβ in the presence or absence of various concentrations cotinine for […] as described (Echeverria et al. (2005)). Cell viability was assessed using the MTT assay (Sigma). As an alternative approach cell viability after exposure to Aβ and cotinine was assessed using the vital dye calcein-AM (green fluorescence) to stain live cells and propidium iodide to stain dead cells. MTT values were normalized to control values considered 100%.\nIn the double calcein-AM and Propidium iodide (PI) staining, PI binds to nucleic acid and is commonly used for identifying dead cells, since it is impermeable to the membranes of viable cells. Calcein-AM is converted to calcein by live cells, binds to the cellular calcium, and stains the cells by emitting a green fluorescence. […] After incubation cells were washed with PBS and the number of calcein-stained (green) and nuclei stained with PI (red) were analyzed by fluorescence microscopy. More than 600 cells per condition were analyzed in several 20× focal planes and recorded.\nTo investigate the effect of cotinine on Aβ neurotoxicity, rat cortical cells were grown in conditions that permitted us to obtain a neuron-enriched culture (around 95% neuron and 5% glial cells) for 7-10 days. […] After 24 h, cell survival was assessed by using MTT and PI and calcein-AM cell viability assays."}, "Aβ1-42 peptide": {"biological_target": "T1, Aβ1-42 peptide (Homo sapiens, UniProt P05067)", "T1 construct": "Aβ1-42 peptide was obtained from American Peptide; purchased American Peptide (Sunnyvale, Calif., USA)", "T1 sequence (P05067 672-713 limits assumed)": "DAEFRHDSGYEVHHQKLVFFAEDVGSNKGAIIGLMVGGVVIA", "experiment": "Aβ oligomerization, Western blot and dot-blot immunoassays (6E10, A11 antibodies)", "type": "biochemical", "procedure": "Aβ1-42 peptide was obtained from American Peptide (Sunnyvale, Calif., USA). To obtain Aβ1-42 oligomer solutions, we used a previously described protocol that results in solutions containing stable oligomers, but not fibrils for several days (Necula et al. (2007)). The lyophilized peptide was dissolved in 1 volume of 1 mM NaOH and then diluted in phosphate-buffered saline (PBS) pH 7.4 to the desired concentrations.\nFor the analysis of the inhibition of Aβ1-42 oligomerization/aggregation reaction, we incubated Aβ (100 μM, pH 7.4) prepared in the absence or presence of ascending concentrations of cotinine (100, 200 and 500 μM) for 7 days at 25° C. and analyzed on days 2, 5, 6 and 7. Aβ oligomerization was analyzed by Western blot and dot-blot immunoassays using antibody 6E10, which preferentially recognizes the monomeric form of Aβ and the A11 antibody that specifically recognizes the oligomeric form of the peptide but not Aβ monomers, protofibrils or fibrils.\nThe western blot analysis was performed as described before (Necula et al. (2007)). 10 μl-aliquots of each oligomerization reaction containing Aβ alone or Aβ plus cotinine were mixed with 5×SDS sample buffer and loaded in a 4-20% Tris-HCl gel and analyzed by Western blot using the 6E10 antibody.\nThe dot-blot analysis was performed as described (Necula et al. (2007)). 4-8 μl of the oligomerization mixture was applied onto nitrocellulose membranes and allowed to dry, after which the membranes were blocked for 1 h at room temperature with 10% skim milk in TBS containing 0.05% Tween 20 (TBS-T). […] After being washed with TBS-T, membranes were incubated with horseradish peroxidase-conjugated secondary antibody (1:5000) for 1 h, and visualized using enhanced chemiluminescence (Dura ECL detection kit, Pharmacia Biotech, Piscataway, N.J., USA), scanned on the Kodak Image Station 440CF, and analyzed using Molecular Imaging Software version 4.0 (Rochester, N.Y., USA) and NIH ImageJ software. The Aβ solutions for each particular day were analyzed in the same membrane and developed simultaneously. […]"}, "Arc": {"system": "Arc", "experiment": "BDNF-induced Arc expression in primary cortical neurons, Western blot", "type": "cell-based", "details": "BDNF plus cotinine 2 h, 7 DIV cortical neurons", "from_the_text": "Then cells were washed with PBS and disrupted by sonication in lysis buffer. Cell extracts were separated by SDS-PAGE and analyzed by Western blot with antibodies against Arc and β-tubulin, which was used as a control (FIG. 16B). The histogram represents the mean±SEM of experiments performed in triplicate. […] BDNF, brain-derived neurotrophic factor."}, "anxiety in mice": {"system": "anxiety in mice", "experiment": "Elevated plus maze, basal anxiety", "type": "in vivo", "details": "cotinine 1 and 5 mg/kg", "from_the_text": "Mice were placed in an EPM (Stoelting, Wood Dale, Ill., USA) made of grey plexiglas, consisting of two opposite-facing open arms, two opposite-facing closed arms, and a central area. Mice were placed at the end of one of the open arms facing toward the central area before a 5-minute test session was begun. We recorded the number of entries into the open and closed arms and assessed the exploratory behavior of the mice. We utilized a video tracking software that measures movement in each section of the maze in order to determine the time the mice were mobile exploring the different arms. Statistical significance was evaluated using One-way ANOVA with Tukey posttest. ns, not significant.\nThe elevated plus maze (EPM) is considered the first choice test for screening anxiolytic effects of drugs. This test is based on the fact that higher anxiety levels will decrease the drive to explore a new environment as a way to avoid a potentially dangerous areas (open arms), and will, therefore, cause the mice to stay immobile in the closed arms for a longer period of time."}, "[2]": {"system": "fear-induced anxiety in mice", "experiment": "Elevated plus maze after fear conditioning (fear-induced anxiety)", "type": "in vivo", "procedure": "Mice were trained for FC. After the retention test, the mice were tested for anxiety levels in the EPM. The number of entries into the open and closed arms and the exploratory behavior of the mice were determined using a video tracking software that measures movement in each section of the EPM.\nTo determine the effect of cotinine treatment on the levels of anxiety in the mice after re-exposure to a fear memory, we performed the same EPM test but 24 h after fear conditioning training (shock in the chamber) and immediately after re-exposure to the context (chamber), a reminder of the unconditioned aversive stimulus (the electric shock)."}, "DARPP-32": {"system": "DARPP-32", "experiment": "DARPP-32 activity in neurons", "type": "cell-based", "details": "neurons from rat brain cells"}, "[3]": {"details": "in vivo; cited from earlier work"}}, "data": [{"molecule": "CN1C(=O)CC[C@H]1c1cccnc1", "note": "[cotinine]", "values": [{"measurement": "cell survival, % of vehicle-treated control cells (PI and calcein-AM)", "setting": "[1]", "result": 83, "unit": "%"}, {"measurement": "levels of Aβ monomers (Western blot, 6E10)", "setting": "Aβ1-42 peptide; 100 μM Aβ1-42, cotinine 100, 200, 500 μM, 5 and 7 days at 25° C.", "result": "increased the levels of Aβ monomers"}, {"measurement": "concentration of Aβ oligomers (A11 dot-blot)", "setting": "Aβ1-42 peptide; 100 μM Aβ1-42, cotinine 100, 200, 500 μM, days 2 and 6 at RT", "result": "decreased the concentration of Aβ oligomers"}, {"measurement": "6E10 immunoreactivity (dot-blot)", "setting": "Aβ1-42 peptide; 100 μM Aβ1-42, increasing cotinine, days 2 and 6 at RT", "result": "higher immunoreactivity for the 6E10 antibody"}, {"measurement": "BDNF-induced expression of Arc", "setting": "Arc", "result": "enhances the BDNF-induced expression of Arc"}, {"measurement": "time spent on open arms (EPM, resting conditions)", "setting": "anxiety in mice; p=0.4471", "result": "did not change"}, {"measurement": "time spent on closed arms (EPM, resting conditions)", "setting": "anxiety in mice; p=0.6186", "result": "did not change"}, {"measurement": "time spent exploring the maze (EPM, resting conditions)", "setting": "anxiety in mice; p=0.8831", "result": "did not change"}, {"measurement": "difference in time in the closed arms, untreated compared with cotinine (EPM after FC)", "setting": "[2]; cotinine 1 mg/kg, p=0.0060", "result": "highly significant"}, {"measurement": "time in the open arms, vehicle compared with cotinine (EPM after FC)", "setting": "[2]; cotinine 1 mg/kg, p=0.0101", "result": "significantly less time in the open arms"}, {"measurement": "time exploring, vehicle compared with cotinine (EPM after FC)", "setting": "[2]; cotinine 1 mg/kg, p=0.0145", "result": "significantly less time exploring"}, {"measurement": "time exploring, vehicle compared with cotinine (EPM after FC)", "setting": "[2]; cotinine 5 mg/kg, p=0.0025", "result": "significantly less time exploring"}, {"measurement": "difference in time in the closed arms, untreated compared with cotinine (EPM after FC)", "setting": "[2]; cotinine 5 mg/kg, p=0.0111", "result": "highly significant"}, {"measurement": "time in the open arms, vehicle compared with cotinine (EPM after FC)", "setting": "[2]; cotinine 5 mg/kg, p=0.0545", "result": "no significant differences"}, {"measurement": "activity of DARPP-32", "setting": "DARPP-32", "result": "increases the activity of DARPP-32"}, {"measurement": "half-life", "setting": "[3]", "result": "10 to 24", "unit": "h"}]}]}
